Test results published in patent US8343924B2, “Composition for improving brain function and method for improving brain function” (Calpis Co., Ltd., priority 2009, dated 2013).

Experiments:
human T2R receptor = settings: functions as a bitter substance; cited from earlier work
[1] = system: scopolamine-induced amnesia; assay: Y-shaped maze test, prophylactic activity against scopolamine-induced amnesia; format: in vivo; settings: male ddY mice, scopolamine 1 mg/kg s.c. 30 min before test
Text: The effect in improving brain function of the composition of the present invention, or the peptide the peptide Pro-Val-Arg-Gly-Pro-Phe-Pro-Ile-Ile-Val (SEQ ID NO: 2) or the peptide Val-Arg-Gly-Pro-Phe-Pro-Ile-Ile-Val (SEQ ID NO: 1) may be confirmed using a system based on an evaluation system for therapeutic drugs against Alzheimer's disease, the system using a Y-shaped maze test, for example. Specifically, a muscarinic receptor antagonist, such as scopolamine, may be used on a rat or a mouse so as to cause a hypofunction of the cholinergic neurons. Then, either the rat or the mouse may be administered with a drug, which induces amnesia by causing brain dysfunction, by itself, or the composition of the present invention, the peptide Pro-Val-Arg-Gly-Pro-Phe-Pro-Ile-Ile-Val (SEQ ID NO: 2) or the peptide Val-Arg-Gly-Pro-Phe-Pro-Ile-Ile-Val (SEQ ID NO: 1) together with such a drug, or the rat or the mouse may be administered, prior to the administration of such a drug, with the composition of the present invention, the peptide Pro-Val-Arg-Gly-Pro-Phe-Pro-Ile-Ile-Val (SEQ ID NO: 2) or the peptide Val-Arg-Gly-Pro-Phe-Pro-Ile-Ile-Val (SEQ ID NO: 1). Then, the mouse or the rat may be subjected to a test using a Y-shaped maze so that the prophylactic actions against amnesia of the composition of the present invention may be confirmed by using the percentage of change in spontaneous alternation behavior to different arms and the total number of entries into the maze as indicators.
Male mice (n=15 to 30) of the ddY strain (approximately 7-week old) were used, and they took food and water ad lib. Test substances used were 3 nmol/kg weight (3 μg/kg weight) and 30 nmol/kg weight (30 μg/kg weight) of Pro-Val-Arg-Gly-Pro-Phe-Pro-Ile-Ile-Val (SEO ID NO: 2). The test substances were administered to the mice once orally 60 minutes before the execution of a Y-shaped maze test for evaluation of spontaneous alternation behavior. […] The sequence of the arms each of the mice entered was recorded. The number of entries by each of the mice for each of the arms during the measurement time was counted to be the total number of entries. […] The percentage of spontaneous alternation behavior was calculated by dividing the number of spontaneous alternation behavior by a number obtained by subtracting 2 from the total number of entries, and multiplying a resultant number by 100. […] The measured values were expressed in the form of mean±standard error for each group. A significant difference between the control group and the scopolamine control group was calculated using Student's t-test. Further, a significant difference between the scopolamine control group and the PVRGPFPIIV (SEQ ID NO: 2)-administered group was calculated using Dunnett's multiple comparison test after one-way analysis of variance. […]

[2] = Example 2, 3 nmol/kg weight (3 μg/kg) once orally 60 min before test

| Sequence | binding to human T2R receptor (receptor for bitter substances) (human T2R receptor) | prophylactic activity against amnesia (percentage of spontaneous alternation behavior) ([1]; Example 1, 3 nmol/kg weight to 30 nmol/kg weight (3 μg/kg to 30 μg/kg) once orally 60 min before test) | prophylactic activity against amnesia (percentage of spontaneous alternation behavior) [1, 2] |
| --- | --- | --- | --- |
| PVRGPFPIIV (Synthetic functional peptide) [Pro-Val-Arg-Gly-Pro-Phe-Pro-Ile-Ile-Val] | binds to a human T2R receptor | had a prophylactic activity against amnesia | had a prophylactic activity against amnesia |
| RGPFPIIV (Synthetic comparative example peptide) [Arg-Gly-Pro-Phe-Pro-Ile-Ile-Val] |  |  | did not show any activity |
| VRGPFPIIV (Synthetic functional peptide) [Val-Arg-Gly-Pro-Phe-Pro-Ile-Ile-Val] |  |  | had a prophylactic activity against amnesia |
